Reference: patent US6100275A, “8-azabicyclo[3.2.1.]oct-2-ene derivatives, their preparation and use” (Neurosearch A/S, priority 1995, dated 2000)
pIC50: −log10 of the molar value.

Key:
[1] = molecular target: T1, 3H-5-hydroxytryptamine (5-HT, serotonin) uptake in cortical synaptosomes (Rattus norvegicus, UniProt P31652); assay: In vitro inhibition of 3H-5-hydroxytryptamine (3H-5-HT, serotonin) uptake in cortical synaptosomes; assay type: biochemical, rat (male Wistar)
T1 construct: Cerebral cortices from male Wistar rats (150-200 g); from tissue; host or cells: cerebral cortex of male Wistar rats, crude synaptosomal P2 fraction
Text: (§1) Specific neurotransmitter transporters/uptake sites on nerve terminals presumably function to terminate neuronal signaling by removing the neurotransmitters dopamine, noradrenaline and serotonin, respectively, from the synaptic cleft. The activity of the transporter integral proteins can be measured in vitro by synaptosomal uptake of ^3 H-dopamine, ^3 H-noradrenaline and ^3 H-serotonine, respectively.
In vitro Inhibition of ^3 H-5-hydroxytryptamine (^3 H-5-HT, serotonin) Uptake in Cortical Synaptosomes
(§2) Tissue preparation: Preparations are performed at 0-4° C. unless otherwise indicated. Cerebral cortices from male Wistar rats (150-200 g) are homogenized for 5-10 sec in 100 volumes of ice-cold 0.32M sucrose containing 1 mM pargyline using an Ultra-Turrax homogenizer. Monoamine oxidase activity will be inhibited in the presence of pargyline. The homogenate is centrifuged at 1000×g for 10 min. […]
(§3) Assay: Aliquots of 4.0 ml tissue suspension are added to 100 μl of test solution and 100 μl of ^3 H-5-HT (1 nM, final concentration), mixed and incubated for 30 min at 37° C. Non-specific uptake is determined using citalopram (1 μM, final concentration). […] The amount of radioactivity on the filters is determined by conventional liquid scintillation counting. Specific uptake is calculated as the difference between total uptake and non-specific uptake. […]

[2] = molecular target: T2, 3H-dopamine (DA) uptake in striatal synaptosomes (Rattus norvegicus, UniProt P23977); assay: In vitro inhibition of 3H-dopamine (3H-DA) uptake in striatal synaptosomes; assay type: biochemical, rat (male Wistar)
T2 construct: Corpi striati from male Wistar rats (150-200 g); from tissue; host or cells: corpus striatum of male Wistar rats, crude synaptosomal P2 fraction
Text: as §1
In vitro Inhibition of ^3 H-dopamine (^3 H-DA) Uptake in Striatal Synaptosomes
as §2, with “preparations:” for “preparation:”, “Corpi striati” for “Cerebral cortices”
as §3, with “H-DA” for “H-5-HT”, “25” for “30”, “benztropine (10” for “citalopram (1”

[3] = molecular target: T3, 3H-noradrenaline (NA) uptake in hippocampal synaptosomes (Rattus norvegicus, UniProt Q63380); assay: In vitro inhibition of 3H-noradrenaline (3H-NA) uptake in hippocampal synaptosomes; assay type: biochemical, rat (male Wistar)
T3 construct: Hippocampi from male Wistar rats (150-200 g); from tissue; host or cells: hippocampus of male Wistar rats, crude synaptosomal P2 fraction
Text: as §1
In vitro Inhibition of ^3 H-noradrenaline (^3 H-NA) Uptake in Hippocampal Synaptosomes
as §2, with “Hippocampi” for “Cerebral cortices”
as §3, with “H-NA” for “H-5-HT”, “90” for “30”, “desipramine” for “citalopram”

[4] = test system: mice (immobility time, tail suspension); assay: Tail suspension test for antidepressant activity (immobility time); assay type: in vivo, mouse (female NMRI); details: Mus musculus, 0.5 h, oral, 30 min before test, 6 min observation, graphical interpolation from at least 3 doses, read-out: ED50 (dose reducing the immobility to 100 sec)
Protocol: A decrease in the immobility time by mice suspended in their tail is seen after systemic administration of central stimulants and by antidepressants (Steru, L., Chermat, R., Thierry, B. & Simon, P. (1985) The tail suspension test: A new method for screening antidepressants in mice. Psychopharmacology 85:367-370.).
Female NMRI mice (20-25 g) habituated to the room (12 hours light/dark) for at least 16 hours and housed 25 per cage are used. The mice are suspended by the tail with adhesive tape to a rod 30 cm above the lab. bench 30 min after an oral administation of vehicle or drug. For the next 6 min the accumulated duration of immobility defined as no movements by the body or extremities (however head movements are not defined as movements) are noted. Six mice per dose are used.
Saline or vehicle treated mice have immobility time scores between 160-180 sec in average. An ED50 -value is calculated by graphical interpolation from at least 3 doses as the dose reducing the immobility to 100 sec.

T3 sequence (Q63380 1-617): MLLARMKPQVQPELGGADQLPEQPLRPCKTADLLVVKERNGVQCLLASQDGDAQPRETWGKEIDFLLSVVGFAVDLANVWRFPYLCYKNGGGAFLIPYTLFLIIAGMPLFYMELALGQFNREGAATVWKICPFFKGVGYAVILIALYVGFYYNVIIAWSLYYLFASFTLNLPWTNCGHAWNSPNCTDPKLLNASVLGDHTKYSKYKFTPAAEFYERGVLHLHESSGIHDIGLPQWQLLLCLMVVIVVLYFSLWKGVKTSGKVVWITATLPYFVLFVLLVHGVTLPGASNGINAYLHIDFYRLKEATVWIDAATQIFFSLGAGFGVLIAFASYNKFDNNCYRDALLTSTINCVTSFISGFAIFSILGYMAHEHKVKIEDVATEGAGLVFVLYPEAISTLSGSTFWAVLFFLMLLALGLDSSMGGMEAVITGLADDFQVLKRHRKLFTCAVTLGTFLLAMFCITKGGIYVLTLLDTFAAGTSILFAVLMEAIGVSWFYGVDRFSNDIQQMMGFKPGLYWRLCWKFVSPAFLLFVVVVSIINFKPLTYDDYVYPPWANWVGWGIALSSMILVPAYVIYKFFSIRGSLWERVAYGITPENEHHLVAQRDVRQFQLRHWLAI
T1 sequence (P31652 whole entry): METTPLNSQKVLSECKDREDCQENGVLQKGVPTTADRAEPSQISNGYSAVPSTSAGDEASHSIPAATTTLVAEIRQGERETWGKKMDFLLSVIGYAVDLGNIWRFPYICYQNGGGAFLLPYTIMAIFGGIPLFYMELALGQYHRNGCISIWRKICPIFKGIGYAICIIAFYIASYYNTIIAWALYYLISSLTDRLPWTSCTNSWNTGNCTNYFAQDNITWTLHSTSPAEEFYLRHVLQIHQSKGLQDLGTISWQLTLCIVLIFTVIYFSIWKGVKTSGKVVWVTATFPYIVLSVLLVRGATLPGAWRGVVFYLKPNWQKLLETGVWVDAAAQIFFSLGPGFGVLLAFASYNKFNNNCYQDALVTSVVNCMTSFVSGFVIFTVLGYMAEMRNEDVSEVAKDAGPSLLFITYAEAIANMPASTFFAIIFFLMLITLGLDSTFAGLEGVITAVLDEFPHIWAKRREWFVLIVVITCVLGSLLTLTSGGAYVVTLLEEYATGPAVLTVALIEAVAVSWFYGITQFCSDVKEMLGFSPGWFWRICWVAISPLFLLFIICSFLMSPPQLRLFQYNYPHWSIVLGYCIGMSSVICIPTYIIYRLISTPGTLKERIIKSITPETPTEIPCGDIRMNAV
T2 sequence (P23977 whole entry): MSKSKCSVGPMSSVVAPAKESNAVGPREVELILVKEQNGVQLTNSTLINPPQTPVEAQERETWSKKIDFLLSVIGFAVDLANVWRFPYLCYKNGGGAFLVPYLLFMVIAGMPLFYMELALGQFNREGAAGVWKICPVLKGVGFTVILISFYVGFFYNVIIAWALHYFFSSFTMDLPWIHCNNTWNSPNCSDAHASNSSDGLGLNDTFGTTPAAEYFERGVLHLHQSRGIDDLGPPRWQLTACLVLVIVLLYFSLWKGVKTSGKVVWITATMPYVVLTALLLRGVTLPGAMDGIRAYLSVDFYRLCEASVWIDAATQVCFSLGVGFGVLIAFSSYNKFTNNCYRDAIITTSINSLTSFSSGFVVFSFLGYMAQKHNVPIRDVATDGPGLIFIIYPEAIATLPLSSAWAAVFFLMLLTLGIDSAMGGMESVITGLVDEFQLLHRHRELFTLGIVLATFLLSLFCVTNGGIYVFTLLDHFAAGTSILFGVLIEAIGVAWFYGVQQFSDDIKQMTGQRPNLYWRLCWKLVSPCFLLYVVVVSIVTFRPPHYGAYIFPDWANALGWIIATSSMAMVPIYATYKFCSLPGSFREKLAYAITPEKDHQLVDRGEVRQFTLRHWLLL

Compound `CN1C2C=C(c3ccc(Cl)c(Cl)c3)CC1CC2` (racemic) [(±)-3-(3,4-Dichlorophenyl)-8-methyl-8-azabicyclo[3.2.1]oct-2-ene] has a pIC50 [1] of 8.33, a pIC50 [2] of 7.10 and a pIC50 [3] of 7.59. For the same compound, the ED50 [4] was 0.96 mg/kg.
